One data set concerns the target T1, GR (Homo sapiens, UniProt P04150).
T1 construct: expressed in transfected cells; host or cells: CHO-K1
T1 sequence (P04150 1-777): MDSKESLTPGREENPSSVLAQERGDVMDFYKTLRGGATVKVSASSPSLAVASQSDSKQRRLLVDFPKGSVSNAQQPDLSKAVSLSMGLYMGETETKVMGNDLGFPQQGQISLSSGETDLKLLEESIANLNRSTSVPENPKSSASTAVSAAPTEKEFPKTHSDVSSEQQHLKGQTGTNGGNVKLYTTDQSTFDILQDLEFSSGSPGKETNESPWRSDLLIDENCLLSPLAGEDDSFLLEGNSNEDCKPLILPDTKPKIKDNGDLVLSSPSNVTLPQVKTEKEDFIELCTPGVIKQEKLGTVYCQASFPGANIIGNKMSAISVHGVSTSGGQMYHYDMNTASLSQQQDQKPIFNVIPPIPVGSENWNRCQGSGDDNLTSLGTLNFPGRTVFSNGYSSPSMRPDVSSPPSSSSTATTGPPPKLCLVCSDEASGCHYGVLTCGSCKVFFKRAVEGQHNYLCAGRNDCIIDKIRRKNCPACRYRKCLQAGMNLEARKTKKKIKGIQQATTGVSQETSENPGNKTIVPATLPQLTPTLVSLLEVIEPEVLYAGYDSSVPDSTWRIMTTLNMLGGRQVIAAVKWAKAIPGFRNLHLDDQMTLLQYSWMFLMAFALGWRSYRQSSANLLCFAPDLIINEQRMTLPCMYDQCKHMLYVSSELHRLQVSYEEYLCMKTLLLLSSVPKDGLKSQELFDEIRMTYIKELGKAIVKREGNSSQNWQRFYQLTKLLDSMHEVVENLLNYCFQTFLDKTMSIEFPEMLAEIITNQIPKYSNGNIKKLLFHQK
The data set can be described thus: In Vitro GR Luciferase Reporter Assay (antagonist mode, CHO-K1-GR-MMTV-Luc reporter cells). The format is cell-based. Conditions: antagonist mode, 10 nM Dexamethasone. The essentials:
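CHO-K1-GR-MMTV-Luc cells in phenol red-free DMEM with 10% CSS, stimulated with 10 nM dexamethasone (final) and treated with 8-point 1:5 compound dilutions for about 18-24 h at 37° C. Luciferase measured by OneGlo luminescence; IC50 derived for inhibition of GR activity.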
(Reporter assays use an easily measured gene product as a stand-in for the process of interest.)

Another data set deals with T2, CYP2C8 (Homo sapiens, UniProt P10632).
T2 construct: Pooled human microsomes were obtained from Sekisui XenoTech, KS; tissue Sekisui XenoTech, KS; host or cells: pooled human liver microsomes
T2 sequence (P10632 1-490): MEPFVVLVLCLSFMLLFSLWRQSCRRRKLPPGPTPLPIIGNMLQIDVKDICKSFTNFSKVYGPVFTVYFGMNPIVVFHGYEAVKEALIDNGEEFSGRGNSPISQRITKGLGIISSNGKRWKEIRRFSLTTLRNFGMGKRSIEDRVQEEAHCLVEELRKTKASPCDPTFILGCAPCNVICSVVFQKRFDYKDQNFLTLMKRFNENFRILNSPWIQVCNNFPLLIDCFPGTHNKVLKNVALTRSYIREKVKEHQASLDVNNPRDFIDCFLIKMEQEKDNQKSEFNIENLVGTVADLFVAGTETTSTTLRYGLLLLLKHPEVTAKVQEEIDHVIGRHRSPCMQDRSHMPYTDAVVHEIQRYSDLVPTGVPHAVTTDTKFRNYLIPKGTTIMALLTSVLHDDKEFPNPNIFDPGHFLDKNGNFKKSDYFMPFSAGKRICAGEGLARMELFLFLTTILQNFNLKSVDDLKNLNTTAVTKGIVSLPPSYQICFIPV
The data set can be described thus: CYP Inhibition Assay (CYP2C8, human liver microsomes, paclitaxel substrate). The conditions noted are these: pH 7.4; pooled human liver microsomes 0.1 mg/mL, probe substrate paclitaxel. It is filed as in vitro ADME. The gist of the method: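 Pooled human liver microsomes (0.1 mg/mL) in 50 mM potassium phosphate pH 7.4 with compound, started with 1 mM NADPH, 5 min at 37° C, duplicate.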
For orientation: Liver microsomes are vesicles of endoplasmic reticulum, rich in cytochrome P450 enzymes.

As usually defined, the IC50 is the concentration needed to halve the response being measured. What is called inhibition is the percentage by which the read-out fell short of the control. For `O=C(c1cc(C(F)(F)F)ccn1)[C@]12Cc3cnn(-c4ccc(F)cc4)c3C=C1CC[C@H](N(CC1CC1)S(=O)(=O)c1ccc(F)cc1)C2` [Example 273, N-(cyclopropylmethyl)-4-fluoro-N-((4aS,6S)-1-(4-fluorophenyl)-4a-(4-(trifluoromethyl)picolinoyl)-4,4a,5,6,7,8-hexahydro-1H-benzo[f]indazol-6-yl)benzenesulfonamide], the IC50 against GR is not above 100 nM. At CYP2C8, this compound registered an inhibition at 5 min not above 25%.
On to `CC(C)N([C@H]1CCC2=Cc3c(cnn3-c3ccc(F)cc3)C[C@]2(C(=O)c2cc(C(F)(F)F)ccn2)C1)S(=O)(=O)c1ccc(Cl)nc1` [Example 279, 6-chloro-N-((4aS,6S)-1-(4-fluorophenyl)-4a-(4-(trifluoromethyl)picolinoyl)-4,4a,5,6,7,8-hexahydro-1H-benzo[f]indazol-6-yl)-N-isopropylpyridine-3-sulfonamide], for which the IC50 against GR was not above 100 nM. The same compound registered an inhibition at 5 min at CYP2C8 of 50 to 75%.
Compound `Cn1cc(S(=O)(=O)N(CC(F)(F)F)[C@H]2CCC3=Cc4c(cnn4-c4ccc(F)cc4)C[C@]3(C(=O)c3cc(Cl)ccn3)C2)cn1` [Example 280, N-((4aS,6S)-4a-(4-chloropicolinoyl)-1-(4-fluorophenyl)-4,4a,5,6,7,8-hexahydro-1H-benzo[f]indazol-6-yl)-1-methyl-N-(2,2,2-trifluoroethyl)-1H-pyrazole-4-sulfonamide] yielded a half-maximal inhibitory concentration (IC50) against GR not above 100 nM. Moreover, at CYP2C8, the inhibition at 5 min was in the range of 25 to 50%.
For `CC(C)N([C@H]1CCC2=Cc3c(cnn3-c3ccc(F)cc3)C[C@]2(C(=O)c2ncc(C(F)(F)F)s2)C1)S(=O)(=O)c1cn(C)nn1` [Example 282, N-((4aS,6S)-1-(4-fluorophenyl)-4a-(5-(trifluoromethyl)thiazole-2-carbonyl)-4,4a,5,6,7,8-hexahydro-1H-benzo[f]indazol-6-yl)-N-isopropyl-1-methyl-1H-1,2,3-triazole-4-sulfonamide], the half-inhibitory concentration (IC50) against GR is not above 100 nM. The compound also gave an inhibition at 5 min on CYP2C8 of 25 to 50%.
For the compound `CC(C)N([C@H]1CCC2=Cc3c(cnn3-c3ccc(F)cc3)C[C@]2(C(=O)c2ncc(C(F)(F)F)s2)C1)S(=O)(=O)c1ccc(Cl)nc1` [Example 283, 6-chloro-N-((4aS,6S)-1-(4-fluorophenyl)-4a-(5-(trifluoromethyl)thiazole-2-carbonyl)-4,4a,5,6,7,8-hexahydro-1H-benzo[f]indazol-6-yl)-N-isopropylpyridine-3-sulfonamide], the IC50 against GR was not above 100 nM. Besides, the inhibition at 5 min on CYP2C8 was not above 25%.
The corresponding values for `CC(C)N([C@H]1CCC2=Cc3c(cnn3-c3ccc(F)cc3)C[C@]2(C(=O)c2cc(C(F)(F)F)ccn2)C1)S(=O)(=O)c1cn(C)nn1` [Example 286, N-((4aS,6S)-1-(4-fluorophenyl)-4a-(4-(trifluoromethyl)picolinoyl)-4,4a,5,6,7,8-hexahydro-1H-benzo[f]indazol-6-yl)-N-isopropyl-1-methyl-1H-1,2,3-triazole-4-sulfonamide] are not above 100 nM and 75 to 90%.
The matching figures for `O=C(c1cc(C(F)(F)F)ccn1)[C@]12Cc3cnn(-c4ccc(F)cc4)c3C=C1CC[C@H](N(C1CC1)S(=O)(=O)c1ccc(Cl)cn1)C2` [Example 287, 5-chloro-N-cyclopropyl-N-((4aS,6S)-1-(4-fluorophenyl)-4a-(4-(trifluoromethyl)picolinoyl)-4,4a,5,6,7,8-hexahydro-1H-benzo[f]indazol-6-yl)pyridine-2-sulfonamide]: not above 100 nM and 25 to 50%.
The matching figures for `Cn1ccc(S(=O)(=O)N([C@H]2CCC3=Cc4c(cnn4-c4ccc(F)cc4)C[C@]3(C(=O)c3cc(Cl)ccn3)C2)[C@H]2C[C@@](C)(O)C2)n1` [Example 288, N-((4aS,6S)-4a-(4-chloropicolinoyl)-1-(4-fluorophenyl)-4,4a,5,6,7,8-hexahydro-1H-benzo[f]indazol-6-yl)-N-((1s,3R)-3-hydroxy-3-methylcyclobutyl)-1-methyl-1H-pyrazole-3-sulfonamide]: not above 100 nM and not above 25%.
`Cn1ccc(S(=O)(=O)[C@@]2(F)CCC3=Cc4c(cnn4-c4ccc(F)cc4)C[C@]3(C(=O)c3ccc(C(F)(F)F)cn3)C2)n1` [Example 289, ((4aS,6S)-6-fluoro-1-(4-fluorophenyl)-6-((1-methyl-1H-pyrazol-3-yl)sulfonyl)-1,4,5,6,7,8-hexahydro-4aH-benzo[f]indazol-4a-yl)(5-(trifluoromethyl)pyridin-2-yl)methanone]: the concentration for half-maximal inhibition (IC50) against GR is not above 100 nM. On CYP2C8, this compound showed an inhibition at 5 min not above 25%.
Compound `Cn1cc(S(=O)(=O)N(CC(F)(F)F)[C@H]2CCC3=Cc4c(cnn4-c4ccc(F)cc4)C[C@]3(C(=O)c3ncc(C(F)(F)F)s3)C2)nn1` [Example 290, N-((4aS,6S)-1-(4-fluorophenyl)-4a-(5-(trifluoromethyl)thiazole-2-carbonyl)-4,4a,5,6,7,8-hexahydro-1H-benzo[f]indazol-6-yl)-1-methyl-N-(2,2,2-trifluoroethyl)-1H-1,2,3-triazole-4-sulfonamide] had an IC50 against GR not above 100 nM. The inhibition at 5 min against CYP2C8 fell in the range of 25 to 50%.
On to `Cn1cnc(S(=O)(=O)N(CC(F)(F)F)[C@H]2CCC3=Cc4c(cnn4-c4ccc(F)cc4)C[C@]3(C(=O)c3ncc(C(F)(F)F)s3)C2)c1` [Example 293, N-((4aS,6S)-1-(4-fluorophenyl)-4a-(5-(trifluoromethyl)thiazole-2-carbonyl)-4,4a,5,6,7,8-hexahydro-1H-benzo[f]indazol-6-yl)-1-methyl-N-(2,2,2-trifluoroethyl)-1H-imidazole-4-sulfonamide], for which, on GR, the IC50 is not above 100 nM. At CYP2C8, this compound displayed an inhibition at 5 min not above 25%.
Regarding `O=C(c1cc(C(F)(F)F)ccn1)[C@]12Cc3cnn(-c4ccc(F)cc4)c3C=C1CC[C@H](N(CC1CC1)S(=O)(=O)c1ccc(Cl)nc1)C2` [Example 294, 6-chloro-N-(cyclopropylmethyl)-N-((4aS,6S)-1-(4-fluorophenyl)-4a-(4-(trifluoromethyl)picolinoyl)-4,4a,5,6,7,8-hexahydro-1H-benzo[f]indazol-6-yl)pyridine-3-sulfonamide], the IC50 against GR was not above 100 nM. On CYP2C8, this compound showed an inhibition at 5 min not above 25%.
Consider `CC(C)N([C@H]1CCC2=Cc3c(cnn3-c3ccc(F)cc3)C[C@]2(C(=O)c2cc(F)ccn2)C1)S(=O)(=O)c1cn(C)nn1` [Example 295, N-((4aS,6S)-1-(4-fluorophenyl)-4a-(4-fluoropicolinoyl)-4,4a,5,6,7,8-hexahydro-1H-benzo[f]indazol-6-yl)-N-isopropyl-1-methyl-1H-1,2,3-triazole-4-sulfonamide], for which the IC50 on GR was not above 100 nM. On CYP2C8, this compound showed an inhibition at 5 min of 50 to 75%.
In the case of `CC(C)N([C@H]1CCC2=Cc3c(cnn3-c3ccc(F)cc3)C[C@]2(C(=O)c2cc(Cl)ccn2)C1)S(=O)(=O)c1cn(C)nn1` [Example 296, N-((4aS,6S)-4a-(4-chloropicolinoyl)-1-(4-fluorophenyl)-4,4a,5,6,7,8-hexahydro-1H-benzo[f]indazol-6-yl)-N-isopropyl-1-methyl-1H-1,2,3-triazole-4-sulfonamide], the IC50 against GR is not above 100 nM. Besides, the inhibition at 5 min at CYP2C8 was in the range of 50 to 75%.
On GR, `Cn1ccc(S(=O)(=O)N(CC2CC2)[C@H]2CCC3=Cc4c(cnn4-c4ccc(F)cc4)C[C@]3(C(=O)c3cc(C(F)F)ccn3)C2)n1` [Example 298, N-(cyclopropylmethyl)-N-((4aS,6S)-4a-(4-(difluoromethyl)picolinoyl)-1-(4-fluorophenyl)-4,4a,5,6,7,8-hexahydro-1H-benzo[f]indazol-6-yl)-1-methyl-1H-pyrazole-3-sulfonamide] displayed a concentration for half-maximal inhibition (IC50) not above 100 nM. On CYP2C8, this compound showed an inhibition at 5 min of 50 to 75%.

For the origin of these results see patent publication US20210122730A1, “GLUCOCORTICOID RECEPTOR MODULATORS” (ORIC Pharmaceuticals, Inc., priority 2017, published 2021).
